The text below walks through data of US9181273B2, “Morpholine-spirocyclic piperidine amides as modulators of ion channels” (Vertex Pharmaceuticals Incorporated, priority 2011, dated 2015).

The structures appear in SMILES notation.

For one assay, the target named is human NaV subtype, like NaV 1.7 (Homo sapiens, UniProt Q15858). Description: E-VIPR optical membrane potential assay with electrical stimulation. It is filed as cell-based.
Sequence of human NaV subtype, like NaV 1.7 (Q15858 whole entry): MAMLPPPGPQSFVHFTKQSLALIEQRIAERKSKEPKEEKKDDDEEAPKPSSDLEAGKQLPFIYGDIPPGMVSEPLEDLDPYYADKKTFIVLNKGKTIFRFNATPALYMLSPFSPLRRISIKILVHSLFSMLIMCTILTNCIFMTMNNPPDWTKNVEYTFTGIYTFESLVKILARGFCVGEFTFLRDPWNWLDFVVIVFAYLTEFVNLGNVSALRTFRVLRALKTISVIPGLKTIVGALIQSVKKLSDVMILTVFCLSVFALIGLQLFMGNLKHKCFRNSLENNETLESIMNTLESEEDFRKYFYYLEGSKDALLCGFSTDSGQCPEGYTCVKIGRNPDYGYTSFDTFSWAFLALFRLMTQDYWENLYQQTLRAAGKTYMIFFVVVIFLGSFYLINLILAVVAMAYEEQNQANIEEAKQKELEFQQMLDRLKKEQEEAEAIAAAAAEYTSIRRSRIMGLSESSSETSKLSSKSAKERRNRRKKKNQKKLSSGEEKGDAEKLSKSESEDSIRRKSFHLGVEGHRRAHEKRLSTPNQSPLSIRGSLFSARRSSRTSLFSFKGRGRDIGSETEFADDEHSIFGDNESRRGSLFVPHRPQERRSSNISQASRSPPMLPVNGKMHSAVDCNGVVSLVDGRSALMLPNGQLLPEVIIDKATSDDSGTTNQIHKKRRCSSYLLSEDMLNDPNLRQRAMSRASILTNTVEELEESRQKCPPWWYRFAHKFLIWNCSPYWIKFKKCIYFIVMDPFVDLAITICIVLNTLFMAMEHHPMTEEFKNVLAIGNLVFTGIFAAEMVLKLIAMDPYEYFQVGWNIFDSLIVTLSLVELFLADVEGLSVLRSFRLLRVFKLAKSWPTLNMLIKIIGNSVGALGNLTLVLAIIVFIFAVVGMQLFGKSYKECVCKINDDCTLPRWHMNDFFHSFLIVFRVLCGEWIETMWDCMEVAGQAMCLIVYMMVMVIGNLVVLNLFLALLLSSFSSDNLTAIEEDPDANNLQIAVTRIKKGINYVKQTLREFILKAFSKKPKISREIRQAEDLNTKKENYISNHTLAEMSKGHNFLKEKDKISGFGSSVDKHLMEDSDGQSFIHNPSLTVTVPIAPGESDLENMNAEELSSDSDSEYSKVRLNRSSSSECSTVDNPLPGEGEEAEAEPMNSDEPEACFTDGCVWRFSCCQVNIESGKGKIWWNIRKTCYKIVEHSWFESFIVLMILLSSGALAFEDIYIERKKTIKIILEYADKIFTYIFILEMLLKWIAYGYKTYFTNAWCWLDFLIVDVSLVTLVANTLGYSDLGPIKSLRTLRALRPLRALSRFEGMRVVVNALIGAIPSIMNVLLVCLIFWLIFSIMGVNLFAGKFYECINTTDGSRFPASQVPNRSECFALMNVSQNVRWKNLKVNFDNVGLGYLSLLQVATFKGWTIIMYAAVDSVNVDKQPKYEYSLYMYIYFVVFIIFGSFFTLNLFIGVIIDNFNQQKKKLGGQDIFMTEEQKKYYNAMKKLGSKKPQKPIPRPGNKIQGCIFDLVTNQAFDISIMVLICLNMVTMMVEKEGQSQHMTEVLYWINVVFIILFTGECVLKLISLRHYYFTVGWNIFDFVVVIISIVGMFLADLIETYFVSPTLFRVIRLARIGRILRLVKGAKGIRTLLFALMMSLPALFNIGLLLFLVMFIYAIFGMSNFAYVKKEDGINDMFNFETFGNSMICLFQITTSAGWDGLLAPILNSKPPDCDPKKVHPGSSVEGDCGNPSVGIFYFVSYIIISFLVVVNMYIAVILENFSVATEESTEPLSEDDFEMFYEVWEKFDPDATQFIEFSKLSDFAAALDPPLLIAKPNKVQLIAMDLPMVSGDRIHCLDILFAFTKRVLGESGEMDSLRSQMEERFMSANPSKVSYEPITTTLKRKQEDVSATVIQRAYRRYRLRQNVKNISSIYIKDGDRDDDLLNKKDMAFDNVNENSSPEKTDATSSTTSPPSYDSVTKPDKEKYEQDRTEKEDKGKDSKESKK
Details: not given
An excerpt: Sodium channels are voltage-dependent proteins that can be activated by inducing membrane voltage changes by applying electric fields. […] The instrument comprises a microtiter plate handler, an optical system for exciting the coumarin dye while simultaneously recording the coumarin and oxonol emissions, a waveform generator, a current- or voltage-controlled amplifier, and a device for inserting electrodes in well. Under integrated computer control, this instrument passes user-programmed electrical stimulus protocols to cells within the wells of the microtiter plate.
24 hours before the assay on E-VIPR, HEK cells expressing human NaV subtype, like NaV 1.7, are seeded in 384-well poly-lysine coated plates at 15,000-20,000 cells per well. Other subtypes are performed in an analogous mode in a cell line expressing the NaV of interest. […] Cells are grown in vented cap flasks, in 90% humidity and 10% CO2, to 100% confluence. They are usually split by trypsinization 1:10 or 1:20, depending on scheduling needs, and grown for 2-3 days before the next split.
To make the solution Add volume of 10% Pluronic F127 stock equal to volumes of CC2-DMPE+DiSBAC6(3). The order of preparation is first mix Pluronic and CC2-DMPE, then add DiSBAC6(3) while vortexing, then add Bath1+β-Cyclodextrin.
1) Pre-spot compounds (in neat DMSO) into compound plates. […] Final compound plate volume will be 80 μL (80-fold intermediate dilution from 1 μL DMSO spot; 160-fold final dilution after transfer to cell plate).
2) Prepare Hexyl Dye Solution.
3) Prepare cell plates. On the day of the assay, medium is aspirated and cells are washed three times with 100 μL of Bath1 Solution, maintaining 25 μL residual volume in each well.
4) Dispense 25 μL per well of Hexyl Dye Solution into cell plates. Incubate for 20-35 minutes at room temp or ambient conditions.
5) Dispense 80 μL per well of Bath1 into compound plates. Acid Yellow-17 (1 mM) is added and Potassium Chloride can be altered from 4.5 to 20 mM depending on the NaV subtype and assay sensitivity.
6) Wash cell plates three times with 100 μL per well of Bath1, leaving 25 μL of residual volume. Then transfer 25 uL per well from Compound Plates to Cell Plates. Incubate for 20-35 minutes at room temp/ambient condition
7) Read Plate on E-VIPR. Use the current-controlled amplifier to deliver stimulation wave pulses for typically 9 seconds and a scan rate of 400 Hz. A pre-stimulus recording is performed for 0.5 seconds to obtain the un-stimulated intensities baseline. The stimulatory waveform is applied for 9 seconds followed by 0.5 seconds of post-stimulation recording to examine the relaxation to the resting state. The stimulatory waveform of the electrical stimulation is specific for each cell type and can vary the magnitude, duration and frequency of the applied current to provide an optimal assay signal.
Data are analyzed and reported as normalized ratios of background-subtracted emission intensities measured in the 460 nm and 580 nm channels. Background intensities are then subtracted from each assay channel. Background intensities are obtained by measuring the emission intensities during the same time periods from identically treated assay wells in which there are no cells. The response as a function of time is then reported as the ratios obtained using the following formula: […]
The data is further reduced by calculating the initial (Ri) and final (Rf) ratios. These are the average ratio values during part or all of the pre-stimulation period, and during sample points during the stimulation period. The response to the stimulus R=Rf/Ri is then calculated and reported as a function of time.
Control responses are obtained by performing assays in the presence of a compound with the desired properties (positive control), such as tetracaine, and in the absence of pharmacological agents (negative control). Responses to the negative (N) and positive (P) controls are calculated as above. The compound antagonist activity A is defined as: […]
The IC50 is the concentration that inhibits the measured activity by half. As to `COc1cc(C(=O)N2CCC3(CC2)CN(CC(F)F)CC(c2ccccn2)O3)ccc1OC(C)C` (stereo not drawn) [Compound 3], the half-inhibitory concentration (IC50) is under 2000 nM.

The assay is the same for the next values; noted with them: active against one or more sodium channels; assay and NaV subtype not specified for Table 3; read-out: IC50 Binned Activity Data.
On to `CCC1CN(c2ncccn2)CC2(CCN(C(=O)c3ccc(C(O)(CC)CC)c(C)c3)CC2)O1` (stereo not drawn) [Compound 1], for which the IC50 was in the range of 2000 to 5000 nM.

Turning to `Cc1cc(C(=O)N2CCC3(CC2)CN(Cc2ccccc2)CC(CCO)O3)ccc1OC(C)C` (stereo not drawn) [Compound 2], the IC50 is over 5000 nM.

Take `CC(C)Oc1ccc(C(=O)N2CCC3(CC2)CN(CC(F)F)CC(c2ccc(F)cc2)O3)cc1CO` (stereo not drawn) [Compound 4]: the IC50 was 2000 to 5000 nM.

With `COCC1CN(C2CCC(C)CC2)CC2(CCN(C(=O)c3ccc(OC(C)C)c(C)c3)CC2)O1` (stereo not drawn) [Compound 5], the IC50 is under 2000 nM.

Consider `Cc1cc(C(=O)N2CCC3(CC2)CN(c2ncccn2)CCO3)ccc1OC(C)C` [Compound 6], for which the IC50 was in the range of 2000 to 5000 nM.

Consider `Cc1cc(C(=O)N2CCC3(CC2)CN(C)CC(c2ccccc2)O3)ccc1OC(C)C` (stereo not drawn) [Compound 7], for which the IC50 was under 2000 nM.

Consider `COCC1CN(c2ncccn2)CC2(CCN(C(=O)c3ccc(S(=O)(=O)C(F)F)cc3)CC2)O1` (stereo not drawn) [Compound 8], for which the IC50 fell in the range of 2000 to 5000 nM.

Consider `CCN1CC2(CCN(C(=O)c3ccc(OC(C)C)c(C)c3)CC2)OC(c2ccccc2)C1=O` (stereo not drawn) [Compound 9], for which the concentration for half-maximal inhibition (IC50) was 2000 to 5000 nM.

For `CCN1CC2(CCN(C(=O)c3ccc(OC(C)C)c(C)c3)CC2)OCC1c1ccccc1` (stereo not drawn) [Compound 10], the IC50 is under 2000 nM.

With `Cc1cc(C(=O)N2CCC3(CC2)CN(CC(F)F)CC(c2ccnn2C)O3)ccc1OC(C)C` (stereo not drawn) [Compound 11], the IC50 was under 2000 nM.

Turning to `CC(C)(C)S(=O)(=O)c1ccc(C(=O)N2CCC3(CC2)CN(CC(F)(F)F)CC(c2ccccc2)O3)cc1` (stereo not drawn) [Compound 12], the IC50 is under 2000 nM.

`CC(C)(C)Oc1ccc(C(=O)N2CCC3(CC2)CN(CC(F)(F)F)CC(c2ccccc2)O3)nc1` (stereo not drawn) [Compound 13]: the IC50 is under 2000 nM.

For `COCC1CN(Cc2ccccn2)CC2(CCN(C(=O)c3ccc(OC(C)C)c(C)c3)CC2)O1` (stereo not drawn) [Compound 14], the IC50 was over 5000 nM.

On to `COCC1CN(c2ncccn2)CC2(CCN(C(=O)c3ccc(OC(C)C)c(CO)c3)CC2)O1` (stereo not drawn) [Compound 15], for which the IC50 is over 5000 nM.

Regarding `COCC1CN(c2cccc(C)n2)CC2(CCN(C(=O)c3ccc(OC(C)C)c(C)c3)CC2)O1` (stereo not drawn) [Compound 16], the IC50 is under 2000 nM.

As for `CCC1CN(c2ccccn2)CC2(CCN(C(=O)c3ccc(C4(O)CCCC4)c(F)c3)CC2)O1` (stereo not drawn) [Compound 17], the IC50 is under 2000 nM.

Turning to `CCC1CN(C(C)(C)C)CC2(CCN(C(=O)c3ccc(OC(C)C)c(C)c3)CC2)O1` (stereo not drawn) [Compound 18], the IC50 was under 2000 nM.

For `COCC1CN(c2ncccn2)CC2(CCN(C(=O)c3ccc(OC(C)C)c(F)c3)CC2)O1` (stereo not drawn) [Compound 19], the IC50 was under 2000 nM.

On to `CCn1nccc1C1CN(CC(F)F)CC2(CCN(C(=O)c3ccc(OC(C)C)c(C)c3)CC2)O1` (stereo not drawn) [Compound 20], for which the IC50 was under 2000 nM.

For `Cc1cc(C(=O)N2CCC3(CC2)CN(CC(F)F)CC(c2cc[nH]n2)O3)ccc1OC(C)C` (stereo not drawn) [Compound 21], the IC50 was under 2000 nM.

On to `CCN1CC(c2ccccc2)OC2(CCN(C(=O)c3ccc(OC(C)C)c(C)c3)CC2)C1` (stereo not drawn) [Compound 22], for which the IC50 is under 2000 nM.

Regarding `COCC1CN(CC#N)CC2(CCN(C(=O)c3ccc(OC(C)C)c(C)c3)CC2)O1` (stereo not drawn) [Compound 23], the IC50 is over 5000 nM.

As for `Cc1cc(C(=O)N2CCC3(CC2)CN(CC(C)(C)O)CC(c2ccccc2)O3)ccc1OC(C)C` (stereo not drawn) [Compound 24], the IC50 was under 2000 nM.

Turning to `Cc1cc(C(=O)N2CCC3(CC2)CN(CCO)CC(c2ccccc2)O3)ccc1OC(C)C` (stereo not drawn) [Compound 25], the IC50 was 2000 to 5000 nM.

For `Cc1cc(C2CN(CC(F)(F)F)CC3(CCN(C(=O)c4ccc(OC(C)C)c(C)c4)CC3)O2)n[nH]1` (stereo not drawn) [Compound 26], the IC50 lay in the range of 2000 to 5000 nM.

Regarding `Cc1cc(C(=O)N2CCC3(CC2)CN(CC(F)F)CC(c2ccc(F)cc2)O3)ccc1OC(C)C` (stereo not drawn) [Compound 27], the IC50 is under 2000 nM.

Take `CCN1CC(C)(C)OC2(CCN(C(=O)c3ccc(OC(C)C)c(C)c3)CC2)C1` [Compound 28]: the IC50 is over 5000 nM.

Regarding `Cc1cc(C(=O)N2CCC3(CC2)CN(CC(C)C)CC(c2ccccc2)O3)ccc1OC(C)C` (stereo not drawn) [Compound 29], the IC50 was under 2000 nM.

For the compound `CC#CCN1CC(CC)OC2(CCN(C(=O)c3ccc(OC)c(C(F)(F)F)c3)CC2)C1` (stereo not drawn) [Compound 30], the IC50 is over 5000 nM.

Take `COCC1CN(c2ccncc2)CC2(CCN(C(=O)c3ccc(OC(C)C)c(C)c3)CC2)O1` (stereo not drawn) [Compound 31]: the IC50 is over 5000 nM.

`COCC1CN(C)CC2(CCN(C(=O)c3ccc(OC(C)C)c(C)c3)CC2)O1` (stereo not drawn) [Compound 32]: the IC50 is over 5000 nM.

In the case of `Cc1cc(C(=O)N2CCC3(CC2)CN(CC(F)F)CC(c2ccccn2)O3)ccc1OC(C)C` (stereo not drawn) [Compound 33], the IC50 is under 2000 nM.

For `CCC1CN(CC)CC2(CCN(C(=O)c3ccc(OC(C)C)c(C)c3)CC2)O1` (stereo not drawn) [Compound 34], the IC50 was over 5000 nM.

In the case of `Cc1cc(C(=O)N2CCC3(CC2)CN(CC(F)F)CC(c2nccn2C)O3)ccc1OC(C)C` (stereo not drawn) [Compound 35], the IC50 was over 5000 nM.

In the case of `COC(=O)c1ccnc(N2CC(CO)OC3(CCN(C(=O)c4ccc(OC(C)C)c(C)c4)CC3)C2)n1` (stereo not drawn) [Compound 36], the IC50 was over 5000 nM.

On to `Cc1cccc(C2CN(CC(F)F)CC3(CCN(C(=O)c4ccc(OC(C)C)c(C)c4)CC3)O2)n1` (stereo not drawn) [Compound 37], for which the half-maximal inhibitory concentration (IC50) was under 2000 nM.

As to `CC(C)Oc1ccc(C(=O)N2CCC3(CC2)CN(CC(F)(F)F)CC(c2cc[nH]n2)O3)cc1F` (stereo not drawn) [Compound 38], the IC50 lay within 2000 to 5000 nM.

On to `CC(C)(O)Cc1ccc(C(=O)N2CCC3(CC2)CN(CC(F)(F)F)CC(c2ccccc2)O3)cc1F` (stereo not drawn) [Compound 39], for which the IC50 was 2000 to 5000 nM.

For the compound `CCC1COC2(CCN(C(=O)c3ccc(OC(C)C)c(C)c3)CC2)CN1CC` (stereo not drawn) [Compound 40], the IC50 was over 5000 nM.

As to `CCC1CN(c2ccccn2)CC2(CCN(C(=O)c3ccc(C(C)(C)O)c(F)c3)CC2)O1` (stereo not drawn) [Compound 41], the IC50 was under 2000 nM.

Consider `Cc1nc(C(=O)N2CCC3(CC2)CN(CC(F)(F)F)CC(c2ccccc2)O3)ccc1OC(C)C` (stereo not drawn) [Compound 42], for which the IC50 was under 2000 nM.

Take `CCN1CC2(CCN(C(=O)c3ccc(OC(C)C)c(OC)c3)CC2)OCC1c1ccccc1` (stereo not drawn) [Compound 43]: the IC50 was 2000 to 5000 nM.

Consider `Cc1cc(C(=O)N2CCC3(CC2)CN(CC(F)F)CC(c2ccccc2F)O3)ccc1OC(C)C` (stereo not drawn) [Compound 44], for which the IC50 is under 2000 nM.

With `CC(C)Oc1ccc(C(=O)N2CCC3(CC2)CN(CC(F)F)CC(c2ccccc2F)O3)cc1F` (stereo not drawn) [Compound 45], the IC50 was under 2000 nM.

Consider `CCC1CN(CC2CC2)CC2(CCN(C(=O)c3ccc(OC(C)C)c(C)c3)CC2)O1` (stereo not drawn) [Compound 46], for which the IC50 is under 2000 nM.

For the compound `COCC1CN(CC2CCC2)CC2(CCN(C(=O)c3ccc(OC(C)C)c(C)c3)CC2)O1` (stereo not drawn) [Compound 47], the IC50 is under 2000 nM.

With `CCC(CC)N1CC(COC)OC2(CCN(C(=O)c3ccc(OC(C)C)c(C)c3)CC2)C1` (stereo not drawn) [Compound 48], the IC50 was under 2000 nM.

Regarding `Cc1cnc(C2CN(C(C)(C)C)CC3(CCN(C(=O)c4ccc(OC(C)C)c(C)c4)CC3)O2)o1` (stereo not drawn) [Compound 49], the IC50 is under 2000 nM.

As for `CCC1CN(c2ncccn2)CC2(CCN(C(=O)c3ccc(C4(O)CCCC4)c(C)c3)CC2)O1` (stereo not drawn) [Compound 50], the IC50 was under 2000 nM.

On to `Cc1cc(C(=O)N2CCC3(CC2)CN(c2ncccn2)C(C)(C)CO3)ccc1OC(C)C` [Compound 51], for which the IC50 is over 5000 nM.

Turning to `CC#CCN1CC(CC)OC2(CCN(C(=O)c3ccc(OC(C)C)c(Cl)c3)CC2)C1` (stereo not drawn) [Compound 52], the IC50 is under 2000 nM.

With `COCC1CN(c2ncccn2)CC2(CCN(C(=O)c3ccc(C(C)(C)O)c(F)c3)CC2)O1` (stereo not drawn) [Compound 53], the IC50 fell in the range of 2000 to 5000 nM.

As for `CCC1CN(c2ccccn2)CC2(CCN(C(=O)c3ccc(C4(O)CCCCC4)cc3)CC2)O1` (stereo not drawn) [Compound 54], the IC50 is under 2000 nM.
